Experimental data reported in article PMC10535741, “Styrylpyridinium Derivatives for Fluorescent Cell Imaging” (Pharmaceuticals, 2023).

Assays:
[1] = system: B16-F10 (murine melanoma); test: in vitro; type: cell-based
From the text: (§1) For selected compounds, 6a–6f, we performed a determination of the cytotoxicity in a wider variety of cancer and non-cancerous cell lines (see Table S2, Supplementary Materials) in order to learn the characteristic features of selectivity or the similarity of biological properties.
(§2) The HT-1080 (human connective tissue fibrosarcoma, ATCC® CCL-121™), MH-22A (mouse hepatocarcinoma, ECACC Cat. No. 96121721), A-549 (human lung carcinoma, ATCC® CCL-185™), NIH3T3 (Swiss Albino mouse embryo fibroblast, ECACC Cat. No. 93061524), Hek293 (human embryonic kidney, ATCC® CRL-1573™), BHK-21 (Syrian hamster kidney, ATCC® CCL-10™), A-431 (human epidermoid carcinoma, ATCC® CRL-1555™), Saos-2 (human osteosarcoma, ATCC® HTB-85™), HeLa (human epitheloid cervix carcinoma, ATCC® CCL-2™), U937 (human myeloid leukaemia, ATCC® CRL-1593.2™), C6 (rat glioma, ATCC® CCL-107™), and B16-F10 (murine melanoma, ATCC® CRL-6475™) cell lines were obtained from the American Type Culture Collection (ATCC) and European Collection of Authenticated Cell Cultures (ECACC).
HT-1080, MH-22A, A-549, NIH3T3, BHK-21, A-431, HeLa, and B16-F10 cells were cultured in Dulbecco’s Modified Eagle’s Medium (DMEM) with 2 mM glutamine and 10% foetal bovine serum (FBS). Hek293 cells were cultured in Eagle’s Minimum Essential Medium with 10% foetal bovine serum. U937 cells were cultured in RPMI-1640 Medium with 2 mM glutamine and 10% foetal bovine serum. C6 cells were cultured in Ham’s F12 Medium with 2 mM glutamine and 10% foetal bovine serum. Saos-2 cells were cultured in McCoy’s 5a Medium with 2 mM glutamine and 10% foetal bovine serum. The cells were incubated at 37 °C with 5% CO2, 95% air, and complete humidity. Once ~90% confluence was reached, they were detached using 0.05% trypsin/EDTA and counted. The cells were plated at optimally determined densities for the logarithmic phase of growth. These cells were then suspended at a concentration of 4000 cells/well for HT-1080, MH-22A, A-549, NIH3T3, BHK-21, A-431, HeLa, B16-F10, Hek293, and Saos-2 cells and a concentration of 9000 cells/well for U937, C6, Hek293, and GM08402 cells and added onto a 96-well plate. For background absorption, some wells remained cell free, i.e., as a blank control. Cells were incubated for 72 h at 37 °C and 5% CO2 where they were exposed to a media containing serial dilutions of the investigated compounds (n = 3). Cell viability was measured using the 3-(4,5-dimethylthiazol-2-yl)-2,5-diphenyl-tetrazolium bromide (MTT) assay. In brief, after incubating with compounds, the culture medium was removed and fresh medium with 0.2 mg/mL MTT was added to each well of the plate. After incubation (3 h, 37 °C, 5% CO2), the medium with MTT solution was removed and replaced with 200 µL DMSO and 25 µL Sorenson’s glycine buffer (glycine 0.1 M, NaCl 0.1 M, pH: 10.5 with 0.1 M NaOH). The plate was shaken for 15 min at room temperature and the optical density (OD) of the wells was determined using a multichannel spectrophotometer (Thermo Scientific Multiskan EX) at 540 nm. The quantity of the control cells was taken in calculations as 100%. The IC50 value was calculated using the program Graph Pad Prism® 3.0. […]

[2] = system: A-549 (human lung carcinoma); test: in vitro; type: cell-based
From the text: as §1, §2
(§3) HT-1080, MH-22A, A-549, NIH3T3, BHK-21, A-431, HeLa, and B16-F10 cells were cultured in Dulbecco’s Modified Eagle’s Medium (DMEM) with 2 mM glutamine and 10% foetal bovine serum (FBS). Hek293 cells were cultured in Eagle’s Minimum Essential Medium with 10% foetal bovine serum. U937 cells were cultured in RPMI-1640 Medium with 2 mM glutamine and 10% foetal bovine serum. C6 cells were cultured in Ham’s F12 Medium with 2 mM glutamine and 10% foetal bovine serum. Saos-2 cells were cultured in McCoy’s 5a Medium with 2 mM glutamine and 10% foetal bovine serum. The cells were incubated at 37 °C with 5% CO2, 95% air, and complete humidity. Once ~90% confluence was reached, they were detached using 0.05% trypsin/EDTA and counted. The cells were plated at optimally determined densities for the logarithmic phase of growth. These cells were then suspended at a concentration of 4000 cells/well for HT-1080, MH-22A, A-549, NIH3T3, BHK-21, A-431, HeLa, B16-F10, Hek293, and Saos-2 cells and a concentration of 9000 cells/well for U937, C6, Hek293, and GM08402 cells and added onto a 96-well plate. For background absorption, some wells remained cell free, i.e., as a blank control. Cells were incubated for 72 h at 37 °C and 5% CO2 where they were exposed to a media containing serial dilutions of the investigated compounds (n = 3). Cell viability was measured using the 3-(4,5-dimethylthiazol-2-yl)-2,5-diphenyl-tetrazolium bromide (MTT) assay. In brief, after incubating with compounds, the culture medium was removed and fresh medium with 0.2 mg/mL MTT was added to each well of the plate. After incubation (3 h, 37 °C, 5% CO2), the medium with MTT solution was removed and replaced with 200 µL DMSO and 25 µL Sorenson’s glycine buffer (glycine 0.1 M, NaCl 0.1 M, pH: 10.5 with 0.1 M NaOH). The plate was shaken for 15 min at room temperature and the optical density (OD) of the wells was determined using a multichannel spectrophotometer (Thermo Scientific Multiskan EX) at 540 nm. The quantity of the control cells was taken in calculations as 100%. The IC50 value was calculated using the program Graph Pad Prism® 3.0.
(§4) The HT-1080 (human connective tissue fibrosarcoma, ATCC® CCL-121™), MH-22A (mouse hepatocarcinoma, ECACC Cat.No. 96121721), A-549 (human lung carcinoma, ATCC® CCL-185™), NIH 3T3 (mouse Swiss Albino embryo fibroblast, ECACC Cat.No. 93061524), Hek293 (human embryonic kidney, ATCC® CRL-1573™), BHK-21 (hamster Syrian kidney, ATCC® CCL-10™), A-431 (human epidermoid carcinoma, ATCC® CRL-1555™), Saos-2 (human oste osarcoma, ATCC® HTB-85™) HeLa (human epitheloid cervix carcinoma, ATCC® CCL-2™), U937 (human myeloid leukaemia, ATCC® CRL-1593.2™), C6 (rat glioma, ATCC® CCL-107™), B16-F10 (murine melanoma, ATCC® CRL-6475™) cell lines were obtained from American Type Culture Collection (ATCC) and European Collection of Authenticated Cell Cultures […]
(§5) Table S2. […]

[3] = system: Saos-2 (human osteosarcoma); test: in vitro; type: cell-based
From the text: as §1, §2, §3, §4, §5

[4] = system: Hek293 (human embryonic kidney); test: in vitro; type: cell-based
From the text: as §1, §2, §3, §4, §5

[5] = system: A-431 (human epidermoid carcinoma); test: in vitro; type: cell-based
From the text: as §1, §2, §3, §4, §5

[6] = system: U937 (human myeloid leukaemia); test: in vitro; type: cell-based
From the text: as §1, §2, §3, §4, §5

[7] = system: HeLa (human epitheloid cervix carcinoma); test: in vitro; type: cell-based
From the text: as §1, §2, §3, §4, §5

[8] = system: murine bone-marrow-derived macrophages (BMDMs); test: cells; settings: Mus musculus, BMDM, 24 h, read-out: IC50 (BMDM viability)
Protocol: In this study, we used murine bone-marrow-derived macrophages (BMDMs) to evaluate the staining potential of the 6e compound in primary immune cells. […] To assess toxicity, the BMDMs were stained with various concentrations (0.1–100 μM) of compound 6e, and after 24 h, cell viability was measured using the CCK-8 assay (Figure 5).
To determine the cytotoxicity of the SP compound 6e, the cells were stained with various concentrations of the dye (0, 0.1, 1, 5, 10, and 100 μM). Briefly, 2 × 10^4 cells were plated in a 96-well plate in 100 μL of the medium. After 24 h, the cells were washed once and a solution of compound 6e in PBS was added to the cells. The cells were incubated in a humidified 5% CO2 incubator at 37 °C for 15–20 min. Then, the dye solution was replaced with medium. […] After 24 h, the medium was replaced with 10 μL of CCK-8 reagent in 100 μL of fresh medium. The cells were incubated in a humidified 5% CO2 incubator at 37 °C for 1–4 h. The absorbance at 450 nm was measured using a microplate spectrophotometer (BioTek Instruments, Winooski, VT, USA). Cell viability was calculated as a percentage of non-treated cell absorbance. IC50 values were calculated as the concentration at which 50% of the cells were viable.

| SMILES | Cytotoxicity IC50 B16-F10 [1] | Cytotoxicity IC50 A-549 [2] | Cytotoxicity IC50 Saos-2 [3] | Cytotoxicity IC50 Hek-293 [4] | Cytotoxicity IC50 A-431 [5] | Cytotoxicity IC50 U937 [6] | Cytotoxicity IC50 HeLa [7] | IC50 [8] |
| --- | --- | --- | --- | --- | --- | --- | --- | --- |
| CCCCCCCCCCCCCCCC[n+]1ccc(C=Cc2cc(OC)c(OC)c(OC)c2)cc1.[Br-] [Compound 6b] | 0.63 µg/mL | 0.98 µg/mL | 0.60 µg/mL | 0.38 µg/mL | 1.10 µg/mL | 1.39 µg/mL | 0.82 µg/mL |  |
| CCCCCCCCCCCCCCCC[n+]1ccc(C=CC=Cc2cc3c4c(c2)CCCN4CCC3)cc1.[Br-] [Compound 6e, 1-hexadecyl-4-(4-(2,3,6,7-tetrahydro-1H,5H-pyrido[3,2,1-ij]quinolin-9-yl)buta-1,3-dien-1-yl)pyridin-1-ium bromide] |  |  |  |  |  |  |  | 9.2 ± 1.5 µM |
